# Assay results from publication PMC10025480 (Frontiers in Pharmacology, 2023).
# Assays:
# 5-HT2B = 5-HT2B (Homo sapiens, UniProt P41595); assay: SelectScreen cell-based GPCR assay, 5-HT2B; conditions: 10 µM
# From the text: (§1) Profiling of compound activity versus a select panel of diverse GPCRs was undertaken by ThermoFisher Scientific (United Kingdom) via their SelectScreen cell-based GPCR assay panel. Detailed experimental protocols on this assay platform can be found at (https://www.thermofisher.com/content/dam/LifeTech/migration/en/filelibrary/services/discovery-research/pdfs.par.36410.file.dat/sscg-brochure.pdf). Briefly these assays detect agonist or antagonist activity using cell lines with the GPCR of interest over-expressed, driving the expression of a reporter gene encompassing a mammalian-optimized Beta-lactamase. Test compounds are incubated with the specific cell lines at the defined final concentration for 5 or 16 h (depending on the cell line specifics) before quantification of effect.
# delta opioid = delta opioid (Homo sapiens, UniProt P41143); assay: SelectScreen cell-based GPCR assay, delta opioid; conditions: 10 µM
# delta opioid, sequence (P41143 whole entry): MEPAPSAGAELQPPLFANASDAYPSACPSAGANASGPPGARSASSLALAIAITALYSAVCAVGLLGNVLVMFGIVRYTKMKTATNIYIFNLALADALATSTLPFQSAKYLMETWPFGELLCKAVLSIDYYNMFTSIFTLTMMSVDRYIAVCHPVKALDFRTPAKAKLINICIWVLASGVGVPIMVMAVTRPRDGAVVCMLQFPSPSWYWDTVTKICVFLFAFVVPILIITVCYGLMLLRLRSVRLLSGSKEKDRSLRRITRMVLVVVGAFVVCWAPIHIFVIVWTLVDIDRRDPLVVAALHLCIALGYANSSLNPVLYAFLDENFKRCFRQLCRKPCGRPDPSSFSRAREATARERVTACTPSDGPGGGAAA
# From the text: as §1
# [1] = system: human vascular smooth muscle preparations; conditions: ref Papp et al., 2019; Danahay et al., 2020b; cited from earlier work
# [2] = cited from earlier work
# [3] = system: human bronchial smooth muscle; conditions: cited from earlier work
# 5-HT2B, sequence (P41595 whole entry): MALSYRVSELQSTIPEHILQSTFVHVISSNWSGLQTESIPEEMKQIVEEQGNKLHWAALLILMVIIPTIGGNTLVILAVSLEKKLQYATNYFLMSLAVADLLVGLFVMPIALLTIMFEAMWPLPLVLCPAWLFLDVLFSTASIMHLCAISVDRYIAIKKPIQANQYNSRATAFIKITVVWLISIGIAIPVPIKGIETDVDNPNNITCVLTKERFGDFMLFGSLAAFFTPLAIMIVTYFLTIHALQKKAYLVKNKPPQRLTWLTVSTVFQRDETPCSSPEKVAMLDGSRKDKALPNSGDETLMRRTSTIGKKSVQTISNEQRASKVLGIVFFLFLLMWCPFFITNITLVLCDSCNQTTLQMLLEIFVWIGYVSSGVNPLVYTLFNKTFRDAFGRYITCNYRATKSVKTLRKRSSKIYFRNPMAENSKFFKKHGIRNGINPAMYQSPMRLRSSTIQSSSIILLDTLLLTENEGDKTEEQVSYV
molecule,measurement,setting,value
COc1ccccc1/C=N/NC(=O)COc1ccc(Cl)cc1C [Ani9],inhibition of 5-HT2B,5-HT2B,≥ 50%
same,inhibition of delta opioid,delta opioid,≥ 50%
CCc1c(C)nc(SCC(=O)Nc2nc(-c3ccc(OC)cc3)cs2)[nH]c1=O [T16Ainh-A01],activity in human vascular smooth muscle preparations,[1],failed to show activity
ETX001,effect on lung function in vivo,[2],no effect
same,effect on freshly isolated human bronchial smooth muscle tone,[3],no effect
